Here are results for 20 compounds from patent publication US9771369B2, “Compounds and methods for kinase modulation, and indications therefor” (Plexxikon Inc., priority 2014, dated 2017).

The target of this assay is c-Kit kinase (Homo sapiens (Human), UniProt P10721). Kind of assay: c-Kit biochemical assay (AlphaScreen kinase activity). The method in brief: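 IC50 values come from 8-point, 1:3 compound titrations measuring inhibition of peptide phosphorylation by c-Kit (commercial or His-tagged E. coli-expressed) over 1 h at room temperature, read by AlphaScreen PY30/streptavidin beads. Low-ATP version: 10 μM ATP, 100 nM biotin-(E4Y)3; high-ATP version: 100 μM ATP, 30 nM biotin-(E4Y)10.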
c-Kit kinase, sequence (P10721 26-976): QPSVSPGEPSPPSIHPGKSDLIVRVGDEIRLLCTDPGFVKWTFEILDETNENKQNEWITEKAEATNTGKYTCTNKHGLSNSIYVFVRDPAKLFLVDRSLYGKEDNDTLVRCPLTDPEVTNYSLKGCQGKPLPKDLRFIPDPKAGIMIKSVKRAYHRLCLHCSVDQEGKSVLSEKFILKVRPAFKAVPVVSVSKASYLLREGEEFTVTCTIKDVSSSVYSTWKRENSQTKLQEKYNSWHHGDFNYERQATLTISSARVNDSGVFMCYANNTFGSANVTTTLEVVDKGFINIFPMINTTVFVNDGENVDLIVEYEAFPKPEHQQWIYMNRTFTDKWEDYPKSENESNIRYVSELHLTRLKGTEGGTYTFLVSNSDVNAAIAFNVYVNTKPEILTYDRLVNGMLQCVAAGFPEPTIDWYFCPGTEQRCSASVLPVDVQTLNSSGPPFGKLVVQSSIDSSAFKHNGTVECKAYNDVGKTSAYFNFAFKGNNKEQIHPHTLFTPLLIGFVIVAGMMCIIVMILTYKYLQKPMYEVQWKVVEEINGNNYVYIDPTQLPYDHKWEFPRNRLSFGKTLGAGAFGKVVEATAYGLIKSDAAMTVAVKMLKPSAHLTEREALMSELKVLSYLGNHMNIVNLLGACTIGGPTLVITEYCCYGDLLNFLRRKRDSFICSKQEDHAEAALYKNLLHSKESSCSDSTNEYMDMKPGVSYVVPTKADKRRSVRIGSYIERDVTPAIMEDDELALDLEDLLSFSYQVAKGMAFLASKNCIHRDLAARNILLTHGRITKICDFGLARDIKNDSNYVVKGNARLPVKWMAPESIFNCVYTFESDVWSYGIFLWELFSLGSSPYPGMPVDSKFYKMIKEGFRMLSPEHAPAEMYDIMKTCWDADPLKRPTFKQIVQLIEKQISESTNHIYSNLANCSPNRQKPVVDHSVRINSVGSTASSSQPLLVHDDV
A general note: Bead proximity is the source of the signal in Alpha formats.

Broadly, the IC50 is the point on the concentration scale where inhibition reaches its midpoint. Low values mean higher potency, high ones lower potency. `CCOc1cc(-c2cc3c(N4CCC(c5nc(C)c(-c6ccccc6)[nH]5)CC4)ncnc3[nH]2)ccn1` [P-3075, 6-(2-ethoxy-4-pyridyl)-4-[4-(4-methyl-5-phenyl-1H-imidazol-2-yl)-1-piperidyl]-7H-pyrrolo[2,3-d]pyrimidine]: the IC50 fell in the range of 0.0001 to 1 µM. For the compound `Cc1nc(C2CCN(c3ncnc4[nH]c(-c5ccnc(N6CCOCC6)c5)cc34)CC2)[nH]c1-c1ccccc1` [P-3076, 4-[4-[4-[4-(4-methyl-5-phenyl-1H-imidazol-2-yl)-1-piperidyl]-7H-pyrrolo[2,3-d]pyrimidin-6-yl]-2-pyridyl]morpholine], the half-inhibitory concentration (IC50) lay within 0.0001 to 1 µM. The compound `Cc1nc(C2CCN(c3ncnc4[nH]c(-c5ccnc(N6CCC(C)CC6)c5)cc34)CC2)[nH]c1-c1ccccc1` [P-3077, 4-[4-(4-methyl-5-phenyl-1H-imidazol-2-yl)-1-piperidyl]-6-[2-(4-methyl-1-piperidyl)-4-pyridyl]-7H-pyrrolo[2,3-d]pyrimidine] had an IC50 of 0.0001 to 1 µM.

Compound `Cc1nc(C2CCN(c3ncnc4[nH]c(-c5ccnc(OC(C)C)c5)cc34)CC2)[nH]c1-c1ccccc1` [P-3078, 6-(2-isopropoxy-4-pyridyl)-4-[4-(4-methyl-5-phenyl-1H-imidazol-2-yl)-1-piperidyl]-7H-pyrrolo[2,3-d]pyrimidine] showed an IC50 of 0.0001 to 1 µM. The same measure for `Cc1nc(C2CCN(c3ncnc4[nH]c(-c5ccnc(N6CCCC6)c5)cc34)CC2)[nH]c1-c1ccccc1` [P-3079, 4-[4-(4-methyl-5-phenyl-1H-imidazol-2-yl)-1-piperidyl]-6-(2-pyrrolidin-1-yl-4-pyridyl)-7H-pyrrolo[2,3-d]pyrimidine]: 0.0001 to 1 µM; for `Cc1nc(C2CCN(c3ncnc4[nH]c(-c5cccc(OC(F)(F)F)c5)cc34)CC2)[nH]c1-c1ccccc1` [P-3080, 4-[4-(4-methyl-5-phenyl-1H-imidazol-2-yl)-1-piperidyl]-6-[3-(trifluoromethoxy)phenyl]-7H-pyrrolo[2,3-d]pyrimidine]: 1 to 10 µM; for `Cc1nc(C2CCN(c3ncnc4[nH]c(-c5cccc(F)c5)cc34)CC2)[nH]c1-c1ccccc1` [P-3081, 6-(3-fluorophenyl)-4-[4-(4-methyl-5-phenyl-1H-imidazol-2-yl)-1-piperidyl]-7H-pyrrolo[2,3-d]pyrimidine]: 0.0001 to 1 µM.

In turn, `Cc1nc(C2CCN(c3ncnc4[nH]c(-c5cccc(NS(C)(=O)=O)c5)cc34)CC2)[nH]c1-c1ccccc1` [P-3083, N-[3-[4-[4-(4-methyl-5-phenyl-1H-imidazol-2-yl)-1-piperidyl]-7H-pyrrolo[2,3-d]pyrimidin-6-yl]phenyl]methane sulfonamide] returned a half-maximal inhibitory concentration (IC50) of 0.0001 to 1 µM. The compound `Cc1nc(C2CCN(c3ncnc4[nH]c(-c5ccc(F)cc5)cc34)CC2)[nH]c1-c1ccc2c(c1)OCCO2` [P-3084, 4-[4-[5-(2,3-dihydro-1,4-benzodioxin-6-yl)-4-methyl-1H-imidazol-2-yl]-1-piperidyl]-6-(4-fluorophenyl)-7H-pyrrolo[2,3-d]pyrimidine] returned an IC50 of 0.0001 to 1 µM. The result for `Cc1nc(C2CCN(c3ncnc4[nH]c(-c5ccc(F)cc5)cc34)CC2)[nH]c1-c1ccc(OC(F)(F)F)cc1` [P-3085, 6-(4-fluorophenyl)-4-[4-[4-methyl-5-[4-(trifluoromethoxy)phenyl]-1H-imidazol-2-yl]-1-piperidyl]-7H-pyrrolo[2,3-d]pyrimidine] reads 0.0001 to 1 µM. The result for `Cc1nc(C2CCN(c3ncnc4[nH]c(-c5ccc(C#N)cc5)cc34)CC2)[nH]c1-c1ccc(OC(F)(F)F)cc1` [P-3086, 4-[4-[4-[4-methyl-5-[4-(trifluoromethoxy)phenyl]-1H-imidazol-2-yl]-1-piperidyl]-7H-pyrrolo[2,3-d]pyrimidin-6-yl]benzonitrile] reads 1 to 10 µM; that for `COc1cc(-c2cc3c(N4CCC(c5nc(C)c(-c6ccc(OC(F)(F)F)cc6)[nH]5)CC4)ncnc3[nH]2)ccn1` [P-3087, 6-(2-methoxy-4-pyridyl)-4-[4-[4-methyl-5-[4-(trifluoromethoxy)phenyl]-1H-imidazol-2-yl]-1-piperidyl]-7H-pyrrolo[2,3-d]pyrimidine], 1 to 10 µM; that for `COc1cc(-c2cc3c(N4CCC(c5nc(C)c(-c6ccc(C)cc6)[nH]5)CC4)ncnc3[nH]2)ccn1` [P-3088, 6-(2-methoxy-4-pyridyl)-4-[4-[4-methyl-5-(p-tolyl)-1H-imidazol-2-yl]-1-piperidyl]-7H-pyrrolo[2,3-d]pyrimidine], 0.0001 to 1 µM. The same measure for `COc1ccc(-c2[nH]c(C3(C)CCN(c4ncnc5[nH]c(-c6ccc(C#N)nc6)cc45)CC3)nc2C)cc1C` [P-3250, 5-[4-[4-[5-(4-methoxy-3-methyl-phenyl)-4-methyl-1H-imidazol-2-yl]-4-methyl-1-piperidyl]-7H-pyrrolo[2,3-d]pyrimidin-6-yl]pyridine-2-carbonitrile]: 0.0001 to 1 µM; for `CCOc1ccc(-c2[nH]c(C3(C)CCN(c4ncnc5[nH]c(-c6ccc(C#N)nc6)cc45)CC3)nc2C)cc1` [P-3251, 5-[4-[4-[5-(4-ethoxyphenyl)-4-methyl-1H-imidazol-2-yl]-4-methyl-1-piperidyl]-7H-pyrrolo[2,3-d]pyrimidin-6-yl]pyridine-2-carbonitrile]: 0.0001 to 1 µM; for `Cc1nc(C2(C)CCN(c3ncnc4[nH]c(-c5ccc(NS(C)(=O)=O)cc5)cc34)CC2)[nH]c1-c1ccc(C(F)F)cc1` [P-3252, N-[4-[4-[4-[5-[4-(difluoromethyl)phenyl]-4-methyl-1H-imidazol-2-yl]-4-methyl-1-piperidyl]-7H-pyrrolo[2,3-d]pyrimidin-6-yl]phenyl]methanesulfonamide]: 0.0001 to 1 µM. As for `Cc1nc(C2(C)CCN(c3ncnc4[nH]c(-c5ccc(C(N)=O)cc5)cc34)CC2)[nH]c1-c1ccc(OC(F)F)cc1` [P-3253, 4-[4-[4-[5-[4-(difluoromethoxy)phenyl]-4-methyl-1H-imidazol-2-yl]-4-methyl-1-piperidyl]-7H-pyrrolo[2,3-d]pyrimidin-6-yl]benzamide], the IC50 was 0.0001 to 1 µM. Turning to `Cc1nc(C2(C)CCN(c3ncnc4[nH]c(-c5ccc(NS(C)(=O)=O)cc5)cc34)CC2)[nH]c1-c1ccc(OC(F)F)cc1` [P-3254, N-[4-[4-[4-[5-[4-(difluoromethoxy)phenyl]-4-methyl-1H-imidazol-2-yl]-4-methyl-1-piperidyl]-7H-pyrrolo[2,3-d]pyrimidin-6-yl]phenyl]methanesulfonamide], the IC50 fell in the range of 0.0001 to 1 µM. The result for `Cc1nc(C2(C)CCN(c3ncnc4[nH]c(-c5ccc(C#N)nc5)cc34)CC2)[nH]c1-c1cccc(OC(F)F)c1` [P-3255, 5-[4-[4-[5-[3-(difluoromethoxy)phenyl]-4-methyl-1H-imidazol-2-yl]-4-methyl-1-piperidyl]-7H-pyrrolo[2,3-d]pyrimidin-6-yl]pyridine-2-carbonitrile] reads 1 to 10 µM; that for `COc1cccc(-c2[nH]c(C3(C)CCN(c4ncnc5[nH]c(-c6ccc(C#N)nc6)cc45)CC3)nc2C)c1` [P-3256, 5-[4-[4-[5-(3-methoxyphenyl)-4-methyl-1H-imidazol-2-yl]-4-methyl-1-piperidyl]-7H-pyrrolo[2,3-d]pyrimidin-6-yl]pyridine-2-carbonitrile], 0.0001 to 1 µM.
